Results taken from the NIST ThermoML archive (doi:10.1016/j.fluid.2014.09.014).

Test: refractive index (other wavelength) (dimensionless); xn = mol fraction of the nth substance listed
Details: 101 kPa, Liquid, Standard Abbe refractometry

CC(C)OC(C)C [diisopropyl ether] + CO
refractive index
Details	Wavelength=40.47 nm	Wavelength=435.8 nm	Wavelength=486.1 nm	Wavelength=546.1 nm	Wavelength=587.6 nm	Wavelength=589.3 nm	Wavelength=632.8 nm	Wavelength=644 nm	Wavelength=706.5 nm
308.15 K, x2 = 0	–	1.36739	1.36407	1.36127	1.36127	1.35983	1.35853	1.35823	1.35683
308.15 K, x2 = 0.0423	–	–	1.36395	1.36116	1.35972	1.35967	1.35842	1.35813	1.35672
308.15 K, x2 = 0.0424	–	1.36729	1.36404	1.36107	1.35977	1.35973	1.35859	1.35825	1.35677
308.15 K, x2 = 0.082	–	1.36727	1.36394	1.36114	1.35971	1.35966	1.35842	1.35812	1.35671
308.15 K, x2 = 0.0822	1.37037	1.36742	1.36409	1.3613	1.35986	1.3598	1.35855	1.35825	1.35685
308.15 K, x2 = 0.1171	1.37018	1.36725	1.36394	1.36113	1.3597	1.35965	1.35843	1.35814	1.35672
308.15 K, x2 = 0.1271	1.37021	1.36728	1.36394	1.36115	1.35972	1.35966	1.35843	1.35813	1.35672
308.15 K, x2 = 0.1827	1.36993	1.367	1.36368	1.3609	1.35947	1.35942	1.35818	1.35788	1.35648
308.15 K, x2 = 0.2162	1.36973	1.36681	1.36351	1.36071	1.35928	1.35923	1.35801	1.35771	1.35631
308.15 K, x2 = 0.251	1.36934	1.36642	1.36312	1.36037	1.35892	1.35889	1.35764	1.35735	1.35595
308.15 K, x2 = 0.3298	1.36925	1.36633	1.36304	1.36029	1.35886	1.35881	1.35757	1.35728	1.35588
308.15 K, x2 = 0.3577	1.36902	1.36611	1.36275	1.36006	1.35865	1.35856	1.35731	1.35703	1.35565
308.15 K, x2 = 0.4497	1.36699	1.36412	1.36085	1.35815	1.35673	1.35668	1.35545	1.35516	1.35375
308.15 K, x2 = 0.4525	1.36743	1.36455	1.36128	1.35854	1.35714	1.35709	1.35586	1.35557	1.35416
308.15 K, x2 = 0.522	1.36511	1.3623	1.35907	1.35635	1.35495	1.3549	1.3537	1.35341	1.35202
308.15 K, x2 = 0.5543	1.36433	1.36152	1.35831	1.35561	1.35422	1.35417	1.35297	1.35268	1.35129
308.15 K, x2 = 0.609	1.36183	1.35906	1.35589	1.35321	1.35182	1.35177	1.35057	1.35028	1.34894
308.15 K, x2 = 0.6529	1.36027	1.35752	1.35437	1.35171	1.35032	1.35027	1.34908	1.34881	1.34745
308.15 K, x2 = 0.7504	1.35626	1.35356	1.35046	1.34787	1.34649	1.34644	1.34527	1.345	1.34368
308.15 K, x2 = 0.804	1.35193	1.34931	1.34626	1.34371	1.34236	1.34231	1.34115	1.34088	1.33959
308.15 K, x2 = 0.807	1.3517	1.34907	1.34606	1.3435	1.34213	1.34208	1.34093	1.34066	1.33939
308.15 K, x2 = 0.8727	1.34787	1.3453	1.34228	1.33978	1.33843	1.33838	1.33724	1.33698	1.33572
308.15 K, x2 = 0.9233	1.33956	1.33712	1.33421	1.33175	1.33046	1.33042	1.32933	1.32908	1.32789
308.15 K, x2 = 0.9253	1.34157	1.33909	1.33616	1.33368	1.33239	1.33234	1.33125	1.331	1.32976
308.15 K, x2 = 0.9527	1.33839	1.33598	1.33306	1.33062	1.32932	1.32928	1.32818	1.32794	1.32672
308.15 K, x2 = 0.9773	1.33485	1.3325	1.3296	1.32717	1.32591	1.32586	1.32479	1.32455	1.32336
308.15 K, x2 = 0.989	1.33356	1.33124	1.32836	1.32594	1.32469	1.32465	1.32358	1.32334	1.32216
308.15 K, x2 = 0.9964	1.33249	1.33018	1.32731	1.32489	1.32366	1.32361	1.32256	1.32232	1.32114
313.15 K, x2 = 0	1.3674	1.36447	1.36119	1.35842	1.357	–	–	–	–
313.15 K, x2 = 0.0423	1.36734	1.36444	1.36111	1.35837	1.35693	–	–	–	–
313.15 K, x2 = 0.0424	1.3674	1.36447	1.36115	1.35839	1.35696	–	–	–	–
313.15 K, x2 = 0.082	1.36731	1.3644	1.36108	1.35823	1.35691	–	–	–	–
313.15 K, x2 = 0.0822	1.3675	1.36459	1.36126	1.35853	1.3571	–	–	–	–
313.15 K, x2 = 0.1171	1.36734	1.36445	1.36113	1.35838	1.35696	–	–	–	–
313.15 K, x2 = 0.1271	1.36736	1.36445	1.36113	1.35841	1.35696	–	–	–	–
313.15 K, x2 = 0.1827	1.36712	1.36423	1.36091	1.35818	1.35676	–	–	–	–
313.15 K, x2 = 0.2162	1.36696	1.36405	1.36077	1.35802	1.35661	–	–	–	–
313.15 K, x2 = 0.251	1.36648	1.36361	1.36031	1.35759	1.35617	–	–	–	–
313.15 K, x2 = 0.3298	1.36657	1.36371	1.36044	1.3577	1.35627	–	–	–	–
313.15 K, x2 = 0.3577	1.36568	1.36268	1.35958	1.35686	1.35545	–	–	–	–
313.15 K, x2 = 0.4497	1.36434	1.36152	1.3583	1.35561	1.35419	–	–	–	–
313.15 K, x2 = 0.4525	1.36476	1.36193	1.35868	1.35599	1.35459	–	–	–	–
313.15 K, x2 = 0.522	1.36255	1.35976	1.35655	1.35386	1.35246	–	–	–	–
313.15 K, x2 = 0.5543	1.36165	1.35887	1.35569	1.353	–	–	–	–	–
313.15 K, x2 = 0.609	1.35929	1.35654	1.3534	1.35074	–	–	–	–	–
313.15 K, x2 = 0.6529	1.35769	1.35496	1.35191	1.34921	–	–	–	–	–
313.15 K, x2 = 0.7504	1.35369	1.35104	1.34795	1.34538	–	–	–	–	–
313.15 K, x2 = 0.804	1.34918	1.34656	1.34353	1.341	–	–	–	–	–
313.15 K, x2 = 0.807	1.34928	1.34668	1.34363	1.34112	–	–	–	–	–
313.15 K, x2 = 0.8727	1.3456	1.34306	1.34009	1.33757	–	–	–	–	–
313.15 K, x2 = 0.9233	1.33747	1.33508	1.33213	1.3297	–	–	–	–	–
313.15 K, x2 = 0.9253	1.33918	1.33674	1.3338	1.33136	–	–	–	–	–
313.15 K, x2 = 0.9527	1.33616	1.33377	1.33085	1.32843	–	–	–	–	–
313.15 K, x2 = 0.9773	1.33271	1.3304	1.32749	1.32509	–	–	–	–	–
313.15 K, x2 = 0.989	1.33146	1.32916	1.32628	1.32387	–	–	–	–	–
313.15 K, x2 = 0.9964	1.33048	1.3282	1.32531	1.32292	–	–	–	–	–
